The source of these data is patent US5189027A, “2-substituted adenosine derivatives and pharmaceutical compositions for circulatory diseases” (priority 1990, dated 1993).

Data set [1] addresses T1, A2 adenosine receptors (Rattus norvegicus, UniProt P30543).
T1 construct: evaluated using Wister rat striatal membranes; from tissue; host or cells: Wistar rat striatal membranes
Kind of data set: Affinity for A2 adenosine receptors, [3H]-NECA binding to Wister rat striatal membranes. Particulars: for Ki: Wister rat striatal membranes, 5 nM [3H]-NECA, Cheng and Prusoff, read-out: Affinity for Adenosine Receptors A2, affinity constant (Ki).
Method: The affinity of the test compound for A2 receptors was also evaluated using Wister rat striatal membranes.
The selectivity for A1 and A2 receptors was obtained by calculating the ratio of the Ki value in terms of A2 receptors to that in terms of A1 receptors (A1 /A2).

In data set [2] the test system is spontaneously hypertensive rats (SHRs). Briefly: Effect on blood pressure and heart rate in SHR. Format: in vivo, rat. The conditions noted are these: for ED30: Rattus norvegicus, iv, 5 min, read-out: Blood Pressure ED30; for Heart Rate ED10: amount giving a 10 percent decrease in initial heart rate; for ED10/ED30: ratio of heart rate ED10 to blood pressure ED30 in SHR. The protocol:
Male spontaneously hypertensive rats (SHRs) were anesthetized with urethane and α-chloralose. The blood pressure of the rats was measured with a pressure transducer through a polyethylene cannula inserted into the left carotid artery. The heart rate was monitored with a cardiotachometer triggered by the arterial pressure pulse. […] The blood pressure and the heart rate of the rats were measured 5 minutes after the respective administrations, and the maximum values thereof were determined.
Effects of the test compounds on the blood pressure and the heart rate were compared in terms of the ED30 and ED10 values.

Data set [3] relates to A1 adenosine receptors. Particulars: background statement; cited from earlier work.
The test system of data set [4] is A2 adenosine receptors. Particulars: background statement; cited from earlier work.
In data set [5] the target is T2, A1 adenosine receptors (Rattus norvegicus, UniProt P25099).
T2 construct: evaluated using Wister rat brain membranes; from tissue; host or cells: Wistar rat brain membranes
T2 sequence (P25099 1-326): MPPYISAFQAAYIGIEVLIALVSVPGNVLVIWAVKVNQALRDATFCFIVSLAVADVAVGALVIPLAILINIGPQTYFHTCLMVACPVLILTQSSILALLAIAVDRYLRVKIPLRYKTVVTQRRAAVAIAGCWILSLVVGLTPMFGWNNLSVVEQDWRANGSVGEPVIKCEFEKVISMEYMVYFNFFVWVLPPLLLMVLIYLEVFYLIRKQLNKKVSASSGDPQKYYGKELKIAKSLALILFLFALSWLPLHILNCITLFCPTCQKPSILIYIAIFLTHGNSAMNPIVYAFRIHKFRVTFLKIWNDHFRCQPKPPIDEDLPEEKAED
Kind of data set: Affinity for A1 adenosine receptors, [3H]-CHA binding to Wister rat brain membranes. The conditions noted are these: 2.5 nM [3H]-CHA, Cheng and Prusoff, read-out: Affinity for Adenosine Receptors A1, affinity constant (Ki). The protocol: The affinity of the compounds of the present invention for adenosine receptors was evaluated in substantially the same manner as is described in R. F. Bruns et al., Mol. Pharmacol., 29, 331-346 (1986); R. F. Bruns et al., Proc. Natl. Acad. Sci., U.S.A., 77, 5547 (1980); and Japanese Laid-Open Patent Publications Nos. 201196/1988 and 111996/1987. […] The above-obtained data were applied to the equation of Cheng and Prusoff, presented in Biochem. Pharmacol., 22, 3099 (1973), thereby finally obtaining the affinity constants (Ki). (See "Neurotransmitter and Receptor Binding". […] Kabushiki Kaisha (Sep. 15, 1987).)

Setting [6] is: anesthetized male SHR, cumulative administration through femoral veins.

Read-outs that look alike come from different tables or passages of the source.

T1 sequence (P30543 whole entry): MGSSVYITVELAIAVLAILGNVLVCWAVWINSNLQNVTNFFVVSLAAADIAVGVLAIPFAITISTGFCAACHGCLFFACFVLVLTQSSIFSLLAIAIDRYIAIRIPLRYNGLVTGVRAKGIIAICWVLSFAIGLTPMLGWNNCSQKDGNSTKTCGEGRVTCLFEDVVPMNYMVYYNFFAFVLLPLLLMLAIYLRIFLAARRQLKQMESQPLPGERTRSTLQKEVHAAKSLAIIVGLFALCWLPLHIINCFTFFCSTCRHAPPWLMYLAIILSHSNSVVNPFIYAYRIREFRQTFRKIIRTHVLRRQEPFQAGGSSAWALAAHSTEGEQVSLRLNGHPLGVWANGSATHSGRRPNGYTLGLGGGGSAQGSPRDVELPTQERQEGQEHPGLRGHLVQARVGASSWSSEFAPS

In the case of `CCCCCCC#Cc1nc(N)c2ncn([C@@H]3O[C@H](CO)[C@@H](O)[C@H]3O)c2n1` [2-Octynyladenosine, reference compound], at A2 adenosine receptors [1], the Ki stood at 11 nM. The “A1/A2 (selectivity, ratio of Ki values)” value on A2 adenosine receptors [1] (ratio of Ki for A1 receptors to Ki for A2 receptors) is listed as 12.1. Besides, in data set [2] (amount giving a 30 percent decrease in initial blood pressure, anesthetized male SHR, cumulative administration through femoral veins), the ED30 was determined as 0.25 µg/kg. Also, the “Heart Rate ED10” value in data set [2] (setting [6]) is 64.50 µg/kg. For the same molecule, the ED10/ED30 in data set [2] amounted to 258.

In the case of `CCNC(=O)[C@H]1O[C@@H](n2cnc3c(N)ncnc32)[C@H](O)[C@@H]1O` [5'-N-ethylcarboxamideadenosine (NECA), 5'-N-ethylcarboxamideadenosine], the “affinity for A1 receptors” value in the data set on A1 adenosine receptors [3] is “high affinity for A1 receptors”. In the data set with A2 adenosine receptors [4], the “affinity for A2 receptors” value is listed as “high affinity for A2 receptors”.

Take `Nc1nc(C#CCC2CCCC2)nc2c1ncn2[C@@H]1O[C@H](CO)[C@@H](O)[C@H]1O` [Compound No. 18, 2-(3-cyclopentyl-1-propynyl)adenosine]: the Ki on A1 adenosine receptors [5] was 162 nM. For the same molecule, on A2 adenosine receptors [1], the Ki was found to be 2.3 nM. Also, in data set [2], the ED30 was found to be 0.054 µg/kg and the ED10/ED30 was greater than 1851. In data set [2] (setting [6]), the “Heart Rate ED10” value was greater than 100 µg/kg.

Regarding `Nc1nc(C#CCC2CCCCC2)nc2c1ncn2[C@@H]1O[C@H](CO)[C@@H](O)[C@H]1O` [Compound No. 26, 2-(3-cyclohexyl-1-propynyl)adenosine], the Ki on A1 adenosine receptors [5] came out at 208 nM. In data set [2], the ED30 is 0.126 µg/kg and the ED10/ED30 is greater than 793. Also, the “Heart Rate ED10” value in data set [2] (setting [6]) was greater than 100 µg/kg.

Turning to `Nc1nc(C#CC2(O)CCCCC2)nc2c1ncn2[C@@H]1O[C@H](CO)[C@@H](O)[C@H]1O` [Compound No. 29, 2-[(1-hydroxycyclohexane-1-yl)ethynyl]adenosine], at A1 adenosine receptors [5], the Ki amounted to 21 nM. Also, in data set [2], the ED30 came to 0.014 µg/kg and the ED10/ED30 stood at 235. Also, the “Heart Rate ED10” value in data set [2] (setting [6]) is 3.29 µg/kg.

`Nc1nc(C#CC2(O)CCCCCCC2)nc2c1ncn2[C@@H]1O[C@H](CO)[C@@H](O)[C@H]1O` [Compound No. 45, 2-[(1-hydroxycyclooctane-1-yl)ethynyl]adenosine]: on A1 adenosine receptors [5], the Ki came out at 56 nM. Also, in data set [2], the ED30 was 0.012 µg/kg and the ED10/ED30 is reported as 1231. Also, in data set [2] (setting [6]), the “Heart Rate ED10” value was found to be 14.78 µg/kg.

For orientation: Ki means a measure of affinity in units of concentration, obtained from inhibition or displacement.
